This passage reports TGI results from PubChem BioAssay (NCI).

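Values below derive from 48-hour exposures of cells grown in 96-well plates, with endpoints linearly interpolated between the two concentrations bracketing the appropriate inhibition level. TGI denotes the concentration required for complete inhibition of growth.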

For one assay, the system named is HL-60(TB) leukemia. The experiment in a line: inhibition of tumour cell growth, NCI panel, 48 h.
Molecule `COC(=O)[C@H](Cc1ccccc1)NC(=O)c1ccc(CNC(=O)/C=C/c2csc(-c3ccccc3)n2)cc1` registered a TGI of over 100 µM.

The molecule `N#Cc1ccccc1OCCOc1ccccc1C#N` showed a TGI of over 100 µM.

In turn, `CCN(/C=C1/C(=O)C(c2ccccc2)N(c2ccccc2)C1=O)CC` (configuration not stated) showed a TGI of over 10 µM.

Turning to `COc1ccc2nc3c(c(N)c2c1)C1CCC3C1(C)C` (configuration not stated), the TGI was 68.6 µM.

Turning to `O=c1cc(Nc2cccc(O)c2)[nH]c(=O)[nH]1`, the TGI is over 100 µM.

On to `O=C(Nn1c(-c2ccccc2)nc2ccccc2c1=O)c1ccc(Cl)cc1`, for which the TGI was over 100 µM.

In turn, `CC(=O)c1ccc(N=NN2CCCC2)cc1` showed a TGI of over 100 µM.

`CSc1nncc(-c2cc3c(c(SC)n2)CCCC3)n1`: the TGI was over 100 µM.

Molecule `Cc1nc2sc3cccc(Cl)c3n2c(=O)c1N=Nc1ccc(Cl)cc1` yielded a TGI of over 100 µM.

In turn, `Cc1cc(N(CCC#N)CCC#N)ccc1/C(N=Nc1ccccc1)=N\NC(=O)c1cc(Cl)ccc1O` had a TGI of over 100 µM.

In the case of `COC(=O)[C@@H]1CO[C@H](C(C)(C)C)N1C(=O)N1C=CC(=O)C[C@H]1C`, the TGI was over 100 µM.

On to `NCCOc1cccc(C2(N3CCCCC3)CCCCC2)c1`, for which the TGI turned out to be 89.2 µM.

Take `Cc1ccc(N=N/C(=N/NC(=O)c2ccccc2)c2ccc(N(CCC#N)CCC#N)cc2C)cc1`: the TGI is over 100 µM.

On to `NC1=NC2(COC(c3ccccc3)(c3ccccc3)c3ccccc3)OC(COC(c3ccccc3)(c3ccccc3)c3ccccc3)C(O)C2O1` (configuration not stated), for which the TGI was over 100 µM.

In the case of `CCCCCCCCCCCCCCCCCCNc1ccn(C2OC(COP(=O)(O)OCC3OC(n4ccc(N)nc4=O)C(O)C3O)C(O)C2O)c(=O)n1` (configuration not stated), the TGI was over 100 µM.

Take `Cc1ccc(S[C@@](C=O)(NC(=O)OCc2ccccc2)C(F)(F)F)cc1`: the TGI turned out to be 41.8 µM.

Molecule `CCOc1cnc(C(O)(c2ccccc2)c2ccccc2)o1` yielded a TGI of over 100 µM.

In the case of `CC(=O)c1ccc(Nc2c3c(nc4ccccc24)CCCC3)cc1`, the TGI was over 100 µM.

Take `O=C1CC(O)c2cscc21` (configuration not stated): the TGI was over 100 µM.

In turn, `CC(C)(C)OC(=O)N(CCCCNC(=O)C(F)(F)F)CCCNC(=O)C(F)(F)F` came in with a TGI of over 100 µM.

As for `C=C1CC[C@@H](CCC2CCC3(OC2)O[C@]2(O)CC[C@@]3(C)OC2(C)C)C(C)(C)[C@H]1C/C=C1\CCOC1=O` (some centres not stated), the TGI stood at 17 µM.

Take `C=CCON(C(=O)OC(C)(C)C)C(C)(C)C`: the TGI is over 100 µM.

The subject of the next assay is EKVX NSCLC. The experiment in a line: inhibition of tumour cell growth, NCI panel, 48 h.
`C=CCC(CCC(C)=O)(C(=O)OCC)C(=O)OCC`: the TGI was over 100 µM.

The molecule `COC(=O)[C@H](Cc1ccccc1)NC(=O)c1ccc(CNC(=O)/C=C/c2csc(-c3ccccc3)n2)cc1` showed a TGI of over 88.5 µM.

For the molecule `N#Cc1ccccc1OCCOc1ccccc1C#N`, the TGI was over 100 µM.

In turn, `CCN(/C=C1/C(=O)C(c2ccccc2)N(c2ccccc2)C1=O)CC` (configuration not stated) had a TGI of over 10 µM.

`COc1ccc2nc3c(c(N)c2c1)C1CCC3C1(C)C` (configuration not stated) had a TGI of over 100 µM.

The molecule `O=c1cc(Nc2cccc(O)c2)[nH]c(=O)[nH]1` yielded a TGI of over 100 µM.

`O=C(Nn1c(-c2ccccc2)nc2ccccc2c1=O)c1ccc(Cl)cc1` yielded a TGI of over 100 µM.

Turning to `CC(=O)c1ccc(N=NN2CCCC2)cc1`, the TGI is over 100 µM.

In the case of `CSc1nncc(-c2cc3c(c(SC)n2)CCCC3)n1`, the TGI is over 100 µM.

Consider `Cc1nc2sc3cccc(Cl)c3n2c(=O)c1N=Nc1ccc(Cl)cc1`, for which the TGI is over 100 µM.

In turn, `Cc1cc(N(CCC#N)CCC#N)ccc1/C(N=Nc1ccccc1)=N\NC(=O)c1cc(Cl)ccc1O` displayed a TGI of over 100 µM.

Molecule `COC(=O)[C@@H]1CO[C@H](C(C)(C)C)N1C(=O)N1C=CC(=O)C[C@H]1C` returned a TGI of over 100 µM.

`NCCOc1cccc(C2(N3CCCCC3)CCCCC2)c1` returned a TGI of 62.6 µM.

`Cc1ccc(N=N/C(=N/NC(=O)c2ccccc2)c2ccc(N(CCC#N)CCC#N)cc2C)cc1` registered a TGI of over 100 µM.

In turn, `NC1=NC2(COC(c3ccccc3)(c3ccccc3)c3ccccc3)OC(COC(c3ccccc3)(c3ccccc3)c3ccccc3)C(O)C2O1` (configuration not stated) registered a TGI of over 100 µM.

`CCCCCCCCCCCCCCCCCCNc1ccn(C2OC(COP(=O)(O)OCC3OC(n4ccc(N)nc4=O)C(O)C3O)C(O)C2O)c(=O)n1` (configuration not stated) showed a TGI of over 100 µM.

`Cc1ccc(S[C@@](C=O)(NC(=O)OCc2ccccc2)C(F)(F)F)cc1` displayed a TGI of 54 µM.

`CCOc1cnc(C(O)(c2ccccc2)c2ccccc2)o1`: the TGI is over 100 µM.

In the case of `CC(=O)c1ccc(Nc2c3c(nc4ccccc24)CCCC3)cc1`, the TGI was over 84.6 µM.

Turning to `O=C1CC(O)c2cscc21` (configuration not stated), the TGI was over 100 µM.

On to `CC(C)(C)OC(=O)N(CCCCNC(=O)C(F)(F)F)CCCNC(=O)C(F)(F)F`, for which the TGI was over 100 µM.

Molecule `C=C1CC[C@@H](CCC2CCC3(OC2)O[C@]2(O)CC[C@@]3(C)OC2(C)C)C(C)(C)[C@H]1C/C=C1\CCOC1=O` (some centres not stated) displayed a TGI of over 71.5 µM.

With `C=CCON(C(=O)OC(C)(C)C)C(C)(C)C`, the TGI was over 100 µM.

Another assay concerns SF-295 CNS. The experiment in a line: inhibition of tumour cell growth, NCI panel, 48 h.
For the molecule `C=CCC(CCC(C)=O)(C(=O)OCC)C(=O)OCC`, the TGI was over 100 µM.

Take `COC(=O)[C@H](Cc1ccccc1)NC(=O)c1ccc(CNC(=O)/C=C/c2csc(-c3ccccc3)n2)cc1`: the TGI worked out at 25.8 µM.

Take `N#Cc1ccccc1OCCOc1ccccc1C#N`: the TGI is over 100 µM.

In turn, `CCN(/C=C1/C(=O)C(c2ccccc2)N(c2ccccc2)C1=O)CC` (configuration not stated) gave a TGI of over 10 µM.

For `COc1ccc2nc3c(c(N)c2c1)C1CCC3C1(C)C` (configuration not stated), the TGI was determined as 69.7 µM.

For the molecule `O=c1cc(Nc2cccc(O)c2)[nH]c(=O)[nH]1`, the TGI was over 100 µM.

Molecule `O=C(Nn1c(-c2ccccc2)nc2ccccc2c1=O)c1ccc(Cl)cc1` registered a TGI of over 100 µM.

`CC(=O)c1ccc(N=NN2CCCC2)cc1`: the TGI is over 100 µM.

Molecule `CSc1nncc(-c2cc3c(c(SC)n2)CCCC3)n1` yielded a TGI of over 100 µM.

As to `Cc1nc2sc3cccc(Cl)c3n2c(=O)c1N=Nc1ccc(Cl)cc1`, the TGI is over 100 µM.

The molecule `Cc1cc(N(CCC#N)CCC#N)ccc1/C(N=Nc1ccccc1)=N\NC(=O)c1cc(Cl)ccc1O` gave a TGI of over 100 µM.

As for `COC(=O)[C@@H]1CO[C@H](C(C)(C)C)N1C(=O)N1C=CC(=O)C[C@H]1C`, the TGI was over 100 µM.

Regarding `NCCOc1cccc(C2(N3CCCCC3)CCCCC2)c1`, the TGI was 77.1 µM.

Regarding `Cc1ccc(N=N/C(=N/NC(=O)c2ccccc2)c2ccc(N(CCC#N)CCC#N)cc2C)cc1`, the TGI is over 100 µM.

Take `NC1=NC2(COC(c3ccccc3)(c3ccccc3)c3ccccc3)OC(COC(c3ccccc3)(c3ccccc3)c3ccccc3)C(O)C2O1` (configuration not stated): the TGI is over 100 µM.

With `CCCCCCCCCCCCCCCCCCNc1ccn(C2OC(COP(=O)(O)OCC3OC(n4ccc(N)nc4=O)C(O)C3O)C(O)C2O)c(=O)n1` (configuration not stated), the TGI is over 100 µM.

Consider `Cc1ccc(S[C@@](C=O)(NC(=O)OCc2ccccc2)C(F)(F)F)cc1`, for which the TGI is over 100 µM.

`CCOc1cnc(C(O)(c2ccccc2)c2ccccc2)o1`: the TGI was over 100 µM.

As for `CC(=O)c1ccc(Nc2c3c(nc4ccccc24)CCCC3)cc1`, the TGI is over 43.2 µM.

The molecule `O=C1CC(O)c2cscc21` (configuration not stated) returned a TGI of over 100 µM.

Molecule `CC(C)(C)OC(=O)N(CCCCNC(=O)C(F)(F)F)CCCNC(=O)C(F)(F)F` returned a TGI of over 100 µM.

As to `C=CCON(C(=O)OC(C)(C)C)C(C)(C)C`, the TGI was over 100 µM.
